Here are results for one substance from patent publication US9873724B2, “Pro-angiogenic peptides and peptide conjugates” (Yissum Research Development Company of the Hebrew …, priority 2013, dated 2018).

Square brackets hold non-standard residues; d marks the D form. * marks the point of attachment. Myristoyl = CCCCCCCCCCCCCC(=O)*; Nle = CCCC[C@H](N)C(=O)O

The test system of the assay is blood vessels of mice (Evans-Blue leakage). The experiment in a line: Inhibition of blood-vessel leakiness (Evans-Blue leakage in mice). In kind it is in vivo, mouse. On the procedure: The peptide of SEQ ID NO: 12 (Myr-Gly-Nle-Arg-Pro-Tyr-NH2), or vehicle (10% PEG-400, 90% DDW), were injected i.p. to mice, in an amount of 20 or 40 mg/Kg. 5 min, 10 min, 1 hr or 4 hrs later, 0.2 ml per 25 g mouse (40 mg/Kg) of 5 mg/ml Evans-Blue solution in double distilled water (DDW) was injected i.p. The experiment was terminated after 30 min and skull was opened to view the brain surface (“Neurosurgery”) and assess the amount of Evans-Blue leaking from blood vessels.
Principle of peripheral vessels staining: Evans-Blue; it is a poly-anionic compound having a M.W. of 960 Dalton, that binds tightly to albumin and being used to track vessel-permeability. In case of blood-vessel leakiness, the Evans-Blue-albumin complex escapes from the blood-stream into the surrounding interstitial fluid with the result of blue coloring of the extremities and the bluish appearance at the brain surface.
In a specific experiment, 40 mg/kg of peptide of SEQ ID NO: 12 or vehicle were injected, each to 2 mice, i.p. 5 min before color injection. Evans-blue, at 40 mg/kg was then injected i.p. and 30 min later “Neurosurgery” was performed and the escape of the color from the blood stream was monitored as manifested by the bluish appearance of the brain surrounding tissue.
In another experiment, 40 mg/kg of peptide SEQ ID NO: 12 were injected to mice, i.p. 1 or 4 hours before color injection (Evans-blue, 40 mg/kg i.p. for 30 minutes). Control mice received i.p. injection of vehicle ([…]) 1 hour before color injection.

As for “Myr-Gly-Nle-Arg-Pro-Tyr-NH2 (Myristoyl-G[Nle]RPY-NH2; SMILES CCCCCCCCCCCCCC(=O)NCC(=O)N[C@@H](CCCC)C(=O)N[C@@H](CCCNC(=N)N)C(=O)N1CCC[C@H]1C(=O)N[C@@H](Cc1ccc(O)cc1)C(N)=O) [AB-017]”, where the note is “20 mg/kg i.p. 10 min before Evans-blue 40 mg/kg i.p., 30 minutes”, the “Evans-Blue leaking from blood vessels (brain and periphery)” value is reported as “no color was leaking”. Further, the “Evans-Blue leaking from blood vessels (brain)” value was “no color was leaking” (40 mg/kg i.p. 5 min before Evans-blue 40 mg/kg i.p., read 30 min later); “no color was leaking” (40 mg/kg i.p. 1 hr before Evans-blue 40 mg/kg i.p., 30 minutes); “only a partial protection” (40 mg/kg i.p. 4 hrs before Evans-blue 40 mg/kg i.p., 30 minutes).
